Patent US7309484B2, “Compositions and methods for screening antibacterial compounds” (priority 2003, dated 2007)
Bridge positions count the residues as written; N and C are the ends. Square brackets hold non-standard residues; d marks the D form. Peptide text beside a SMILES is read from it. * marks the point of attachment. Ileψ(thiazoline)Cys = CC[C@H](C)[C@H](N)C1=N[C@H](C(=O)*)CS1; dOrn = NCCC[C@@H](N)C(=O)O

Experiments:
[1] = test system: B. subtilis wild-type strain CU1065 gene expression; assay: DNA microarray analysis of the bacitracin stimulon, wild-type CU1065; format: cell-based, Bacillus subtilis; conditions: wild type CU1065, 5 min after bacitracin
From the text: The bacitracin stimulon of B. subtilis was examined using global transcriptome analysis. […] Under most conditions tested, about 60-70 genes were induced greater than 5-fold. […] The scatter-plot represents the data sets obtained for strain HB0920 (yvqH was still detected as bacitracin-inducible due to the presence of a remaining region near the 5′-end of the gene). […] Members of the σ^M (white open squares) and σ^B (small black triangles) regulon are highlighted. All other gene signals are represented as small gray diamonds. […]
The bacitracin stimulon in the wild-type strain CU1065 was qualitatively similar to that of the liaH-deletion mutant HB0920 as judged by a comparison of the induction profile at 5 min, as illustrated in FIG. 8. […] Relative hybridization intensities are plotted for genes as measured for CU1065 (x axis) and HB0920 (y axis). […]
This locus is therefore a candidate for negative regulation by LiaH. In addition, expression of the bacAB and yvcRS loci was threefold greater in CU1065 than in the liaH mutant when both were measured 5 min after bacitracin treatment. […]
Each slide contains 9220 features corresponding to duplicate copies of each open reading frame, additional PCR products for some ORFs, rRNA genes, and other controls. […] Fluorescent signal intensity data was quantified using ArrayVision software (Molecular Dynamics) and normalized to the total detectable mRNA. […]

[2] = test system: B. subtilis strain BFS2470; assay: Concentration-dependent induction/killing experiments; format: cell-based, Bacillus subtilis
Description: Concentration-dependent induction/killing experiments were performed for bacitracin, nisin, ramoplanin and vancomycin as shown in FIG. 7. In all four cases the induction of liaI occurred in a concentration-dependent manner (FIG. 7a), reaching a maximum at an antibiotic concentration of about 10 μg/ml (1 μg/mL for vancomycin). The time of antibiotic addition is indicated by an arrow. The antibiotic concentrations affecting the induction of PliaI according to the β3-galactosidase assay are indicated by white symbols. The corresponding concentrations are: bacitracin ([…]), nisin (50, 70 and 100 μg/ml), ramoplanin (20, 50 and 100 μg/mL) and vancomycin (5, 10, 50 and 100 μg/mL).
This finding correlates well with the bactericidal effects of these antibiotics as inferred from the dramatic decrease of optical density: there is little effect of bacitracin and vancomycin on cell growth during the first 30-60 min after addition even at high concentrations (FIG. 7b).
The cultures were incubated with aeration at 37° C.

With `CC[C@H](C)[C@H](N)C1=N[C@H](C(=O)N[C@@H](CC(C)C)C(=O)N[C@H](CCC(=O)O)C(=O)N[C@H](C(=O)N[C@H]2CCCCNC(=O)[C@H](CC(N)=O)NC(=O)[C@@H](CC(=O)O)NC(=O)[C@H](Cc3cnc[nH]3)NC(=O)[C@@H](Cc3ccccc3)NC(=O)[C@H]([C@@H](C)CC)NC(=O)[C@@H](CCCN)NC2=O)[C@@H](C)CC)CS1` [Bacitracin] ({Ileψ(thiazoline)Cys}-L[dE]IK[dOrn]I[dF]H[dD]N; lactam 4-C) the “induction of yhcYZ/yhdA locus” value [1] was “not induced”, the “lacZ-expression at higher concentration” value ([2]; FIG. 7a, in words) was “remained elevated” and the “effect on cell growth / optical density” value ([2]; high concentrations, FIG. 7b, in words) was “little effect”. For the same compound, the “antibiotic concentration at maximum induction of liaI” value ([2]; β-galactosidase assay after 30 min, 0.01 to 100 μg/ml tested) was “about 10 μg/ml”.
